From patent US10294202B2, “Pyrrolidinones as herbicides” (FMC Corporation, priority 2013, dated 2019)

Experiments:
corn = assay: Test A pre-/postemergence herbicide test; format: in vivo, Zea mays; settings: for Corn plant response rating: Preemergence, visual rating on 0 to 100 scale (0 no effect, 100 complete control)
Summary of the method: (§1)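 Visual injury ratings, 0 = no effect, 100 = complete control, taken ~10 days after treatment against untreated greenhouse controls. Preemergence: directed soil spray onto seeded loam/sand pots. Postemergence: spray onto plants at one- to two-leaf stage, 2–10 cm tall.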

pigweed = assay: Test A pre-/postemergence herbicide test; format: in vivo, Amaranthus retroflexus; settings: for Pigweed plant response rating: Preemergence, visual rating on 0 to 100 scale (0 no effect, 100 complete control)
Summary of the method: as §1

rice = assay: Test B flooded paddy test; format: in vivo, Oryza sativa; settings: 250 g ai/ha, Flood; scale of 0 to 100 where 0 is no effect and 100 is complete control
Summary of the method: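 Visual ratings from 0, meaning no effect, up to 100, meaning complete control, were made by comparison with untreated controls 13 to 15 days after treatment. Test compounds went straight into floodwater standing 3 cm over the soil of pots holding 2-leaf seedlings.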

blackgrass = assay: Test C pre-/postemergence herbicide test; format: in vivo, Alopecurus myosuroides; settings: Preemergence; for Blackgrass plant response rating: 31 g ai/ha
Summary of the method: (§2)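 Pre- and postemergence greenhouse screen. Preemergence treatment went onto freshly planted seeds in loam–sand soil; postemergence treatment went onto plants 2 to 18 cm tall at the 1- to 4-leaf stage in sphagnum peat/vermiculite medium. Scoring at 13 to 15 days used a 0–100 control scale.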

giant foxtail = assay: Test A pre-/postemergence herbicide test; format: in vivo, Setaria faberii; settings: for Foxtail, Giant plant response rating: Preemergence, visual rating on 0 to 100 scale (0 no effect, 100 complete control)
Summary of the method: as §1

nutsedge, yellow = assay: Test C pre-/postemergence herbicide test; format: in vivo, Cyperus esculentus; settings: Preemergence
Summary of the method: as §2

barnyardgrass = assay: Test A pre-/postemergence herbicide test; format: in vivo, Echinochloa crus-galli; settings: for Barnyardgrass plant response rating: Preemergence, visual rating on 0 to 100 scale (0 no effect, 100 complete control)
Summary of the method: as §1

velvetleaf = assay: Test C pre-/postemergence herbicide test; format: in vivo, Abutilon theophrasti; settings: Preemergence
Summary of the method: as §2

johnsongrass = assay: Test C pre-/postemergence herbicide test; format: in vivo, Sorghum halepense; settings: Preemergence
Summary of the method: as §2

foxtail, giant = assay: Test C pre-/postemergence herbicide test; format: in vivo, Setaria faberii; settings: Preemergence; for Foxtail, Giant plant response rating: 31 g ai/ha
Summary of the method: as §2

[1] = Postemergence, 125 g ai/ha, 0 to 100 scale, 0 no effect, 100 complete control
[2] = Postemergence, 500 g ai/ha, 0 to 100 scale (0 no effect, 100 complete control)
[3] = preemergence, 500 g ai/ha, 0 to 100 scale
[4] = scale 0 to 100 (0 no effect, 100 complete control)
[5] = 125 g ai/ha, scale 0 to 100 (0 no effect, 100 complete control)
[6] = 250 g ai/ha, scale 0 to 100 (0 no effect, 100 complete control)
[7] = preemergence, 500 g ai/ha, 0 to 100 scale (0 no effect, 100 complete control)
[8] = scale 0 to 100, 0 is no effect and 100 is complete control
[9] = 31 g ai/ha, scale 0 to 100, 0 is no effect and 100 is complete control

SMILES	Plant response rating, Corn (corn; [1])	Plant response rating, Corn (corn; [2])	Corn plant response rating (corn; 125 g ai/ha)	Plant response rating, Corn (corn; [3])	Plant response rating, Pigweed (pigweed; [1])	Plant response rating, Pigweed (pigweed; [2])	Pigweed plant response rating (pigweed; 125 g ai/ha)	Plant response rating, Pigweed (pigweed; [3])	Plant response rating, Rice (rice)	Plant response rating, Blackgrass (blackgrass; 62 g ai/ha, scale 0 to 100)	Plant response rating, Blackgrass (blackgrass; [5])	Plant response rating, Blackgrass (blackgrass; [6])	Plant response rating, Foxtail, Giant (giant foxtail; [1])	Plant response rating, Foxtail, Giant (giant foxtail; [2])	Foxtail, Giant plant response rating (giant foxtail; 125 g ai/ha)	Plant response rating, Foxtail, Giant (giant foxtail; [3])	Plant response rating, Nutsedge, Yellow (nutsedge, yellow; 62 g ai/ha, scale 0 to 100)	Plant response rating, Nutsedge, Yellow (nutsedge, yellow; [5])	Plant response rating, Barnyardgrass (barnyardgrass; [1])	Plant response rating, Barnyardgrass (barnyardgrass; [2])	further results
O=C1NCC(c2ccc(F)c(Cl)c2)C1C(=O)Nc1cccc(F)c1F (centres unmarked) [Compound 59]	0	30	0	0	0	40	0	0	20	0	30	60	80	80	80	90	0	0	70	90	Blackgrass plant response rating (blackgrass; [4]): 0; Barnyardgrass plant response rating (barnyardgrass; 125 g ai/ha): 80; Plant response rating, Barnyardgrass (barnyardgrass; [7]): 90; Plant response rating, Velvetleaf (velvetleaf; 62 g ai/ha, scale 0 to 100): 0; Plant response rating, Velvetleaf (velvetleaf; [5]): 0; Plant response rating, Johnsongrass (johnsongrass; 62 g ai/ha, scale 0 to 100): 0; Plant response rating, Johnsongrass (johnsongrass; [5]): 0; Foxtail, Giant plant response rating (foxtail, giant; [4]): 50; Plant response rating, Foxtail, Giant (foxtail, giant; 62 g ai/ha, scale 0 to 100): 85; Plant response rating, Foxtail, Giant (foxtail, giant; [5]): 85; Plant response rating, Foxtail, Giant (foxtail, giant; [6]): 90
O=C1NCC(c2ccc3c(c2)OC(F)(F)O3)C1C(=O)Nc1cccc(F)c1F (centres unmarked) [Compound 62]	40	70	0	0	30	70	0	30	0	45	80	80	80	80	80	90	10	20	70	80	Blackgrass plant response rating (blackgrass; [4]): 0; Barnyardgrass plant response rating (barnyardgrass; 125 g ai/ha): 80; Plant response rating, Barnyardgrass (barnyardgrass; [7]): 80; Plant response rating, Velvetleaf (velvetleaf; 62 g ai/ha, scale 0 to 100): 20; Plant response rating, Velvetleaf (velvetleaf; [5]): 25; Plant response rating, Johnsongrass (johnsongrass; 62 g ai/ha, scale 0 to 100): 10; Plant response rating, Johnsongrass (johnsongrass; [5]): 30; Foxtail, Giant plant response rating (foxtail, giant; [4]): 65; Plant response rating, Foxtail, Giant (foxtail, giant; 62 g ai/ha, scale 0 to 100): 80; Plant response rating, Foxtail, Giant (foxtail, giant; [5]): 85; Plant response rating, Foxtail, Giant (foxtail, giant; [6]): 85
O=C1NCC(c2cccc(Br)c2)C1C(=O)Nc1cccc(F)c1F (centres unmarked) [Compound 64]	30	40	20	20	0	30	0	0	15	5	5	30	70	80	80	90	20	20	60	80	Blackgrass plant response rating (blackgrass; [4]): 0; Barnyardgrass plant response rating (barnyardgrass; 125 g ai/ha): 80; Plant response rating, Barnyardgrass (barnyardgrass; [7]): 90; Plant response rating, Velvetleaf (velvetleaf; 62 g ai/ha, scale 0 to 100): 10; Plant response rating, Velvetleaf (velvetleaf; [5]): 10; Plant response rating, Johnsongrass (johnsongrass; 62 g ai/ha, scale 0 to 100): 40; Plant response rating, Johnsongrass (johnsongrass; [5]): 75; Foxtail, Giant plant response rating (foxtail, giant; [4]): 50; Plant response rating, Foxtail, Giant (foxtail, giant; 62 g ai/ha, scale 0 to 100): 80; Plant response rating, Foxtail, Giant (foxtail, giant; [5]): 90; Plant response rating, Foxtail, Giant (foxtail, giant; [6]): 98
O=C1NCC(c2cccc(Br)c2)C1C(=O)Nc1ccccc1F (centres unmarked) [Compound 66]	20	80	20	20	0	0	0	0	0	0	0	20	70	80	80	90	0	0	80	80	Blackgrass plant response rating (blackgrass; [8]): 0; Nutsedge, Yellow plant response rating (nutsedge, yellow; [9]): 0; Barnyardgrass plant response rating (barnyardgrass; 125 g ai/ha): 80; Plant response rating, Barnyardgrass (barnyardgrass; [7]): 90; Velvetleaf plant response rating (velvetleaf; [9]): 10; Plant response rating, Velvetleaf (velvetleaf; 62 g ai/ha, scale 0 to 100): 20; Plant response rating, Velvetleaf (velvetleaf; [5]): 25; Johnsongrass plant response rating (johnsongrass; [9]): 30; Foxtail, Giant plant response rating (foxtail, giant; [8]): 20; Plant response rating, Foxtail, Giant (foxtail, giant; 62 g ai/ha, scale 0 to 100): 75; Plant response rating, Foxtail, Giant (foxtail, giant; [5]): 85; Plant response rating, Foxtail, Giant (foxtail, giant; [6]): 95
